Data on four molecules can be found in publication PMC9835592, “Allosteric inhibition of Staphylococcus aureus MenD by 1,4-dihydroxy naphthoic acid: a feedback inhibition mechanism of the menaquinone biosynthesis pathway” (Philosophical Transactions of the Royal Society B: …, 2023).

In general, Hill slope refers to a measure of the steepness of the concentration-response curve. By IC50 is commonly meant the midpoint of a concentration-inhibition curve. By Kd is commonly meant the free concentration of one partner at which half of the binding sites on the other are occupied at equilibrium, for simple one-to-one binding. As usually defined, the stoichiometry N is the number of molecules, sites or subunits per partner or assembly.

In data set [1] the test system is Sau-MenDIS1 Lys283Ala mutant (Staphylococcus aureus, K283A). As to the kind of experiment: UV spectroscopy assay of isochorismate consumption, DHNA inhibition. Particulars: four-parameter Hill fit; complete CI not determinable, best-fit value to be interpreted with caution.
Data set [2] has as its target Sau-MenDIS1 Lys283Ala mutant (Staphylococcus aureus, UniProt Q5HH40, K283A). The data set is described as above.
The test system of data set [3] is four different Sau strains. As to the kind of experiment: Growth assay with exogenous DHNA in LB medium (OD600). To be noted: 37°C, 24 h.
Experimental: (§4) Sau and Pseudomonas aeruginosa (electronic supplementary material, table S2) were grown for 18 ± 2 h in 5 ml of LB medium at 37°C and 180 r.p.m. Cultures were then diluted in fresh LB medium to contain 2.7 × 10^6 CFU ml^−1. A Nunc Microwell 96-well flat-bottom plate (Thermo Scientific) was seeded in triplicate (from three independent starter cultures) with 75 µl of each of the diluted cultures and 75 µl of 2× working solutions of DHNA, MK-4 or DHNA + MK-4 (prepared from the following stock solutions: 100 mM DHNA dissolved in dimethyl sulfoxide (DMSO), and 50 mM MK-4 (Sigma-Aldrich) dissolved in 100% ethanol). Plate wells contained a final concentration of 10^6 CFU well^−1 with 0, 50 or 100 µM DHNA for growth assays, or with 0 or 100 µM DHNA supplemented with 337 µM MK-4 for growth rescue assays. Plates were incubated at 37°C and 300 r.p.m. for 24 h. Growth was determined by measuring the OD600 of the cultures every 30 min during the incubation period. Data from biological replicates were averaged and subtracted from blank data (sterile medium with appropriate additives).
Data set [4] deals with Sau-MenDIS1 Lys309Ala mutant (Staphylococcus aureus, UniProt Q2FZL7, K309A). As to the kind of experiment: UV spectroscopy assay of isochorismate consumption, DHNA inhibition.
Data set [5] concerns Mtb-MenD. Also on record: method as in PMID 32029475. Particulars: 0.6 µM Mtb-MenD; read-out: IC50 of DHNA, SEPHCHC activity; cited from earlier work.
Data set [6] has as its target WT Sau-MenDIS1 (Staphylococcus aureus, UniProt Q2FZL7). The experiment in a line: UV spectroscopy assay of isochorismate consumption (SEPHCHC synthase activity), DHNA inhibition. In kind it is biochemical.
For data set [7], the target named is Sau-MenDIS1 (Staphylococcus aureus, UniProt Q2FZL7). The experiment in a line: Intrinsic fluorescence quenching upon DHNA titration. It is filed as binding. The procedure:
(§1) Intrinsic fluorescence quenching experiments were performed at 25°C with a Varian Cary Eclipse Fluorescence Spectrophotometer (Agilent Technologies) with slits set at 5 nm bandwidth. The excitation wavelength was 290 nm and emission spectra were recorded in the 300–400 nm range. […] For Sau-MenD samples in the presence of the reaction ligands, the enzyme was preincubated with 100 µM ThDP only or 100 µM ThDP and 300 µM oxoglutarate for 45 min at ambient temperature. DHNA (Sigma-Aldrich) was titrated from stock solutions that were prepared in the assay buffer and kept on ice. Following DHNA addition, cuvette contents were mixed immediately and fluorescence intensity was measured.
(§2) The fluorescence intensities obtained at 340 nm were corrected for the dilution factor as well as for inner filter effects using equation (2.1),2.1 Fi corr=Fi dil ×10^Aex+Aem/2, where Fi corr is the corrected value of fluorescence intensity at the titration point, Fi dil is the dilution-corrected fluorescence intensity measured, and Aex and Aem are the absorbance of DHNA at excitation (290 nm) and emission wavelengths (340 nm).
(§3) Corrected intensities were plotted against the DHNA concentration and, to determine the Kd value for DHNA, the resulting data were fitted in GraphPad Prism 9 using equation (2.2),2.2 F=Fmax−(X+Kd+M−(X+Kd+M)^2−4XM)/2M(Fmax−Fmin), where F is the measured fluorescence intensity of Sau-MenD, Fmax is the fluorescence intensity of Sau-MenD in the absence of DHNA, Fmin is the fluorescence intensity when Sau-MenD is saturated with DHNA, M is the micromolar concentration of enzyme used in the assay, X is the micromolar DHNA concentration and Kd is the dissociation constant.

For data set [8], the target named is T1, Sau-MenDATCC 25923 (Staphylococcus aureus, UniProt Q5HH40). The description is as above. It is filed as binding. Particulars: 1 µM enzyme. The procedure:
as §1, §2, §3

Data set [9] deals with Sau-MenDIS1 Arg98Ala mutant (Staphylococcus aureus, UniProt Q2FZL7, R98A). The experiment in a line: UV spectroscopy assay of isochorismate consumption, DHNA inhibition.
In data set [10] the test system is Sau. Set-up: method as in PMID 35091344. Particulars: addition to culture medium; cited from earlier work.
The target in data set [11] is T1, Sau-MenDATCC 25923. The experiment in a line: UV spectroscopy assay of isochorismate consumption, DHNA inhibition. It is filed as biochemical.
Data set [12] relates to Pseudomonas aeruginosa. The experiment in a line: Growth assay with exogenous DHNA in LB medium (OD600), control bacterium. Particulars: DHNA concentrations up to 150 µM, 37°C, 24 h.
Experimental: as §4
The test system of data set [13] is Sau strains. As to the kind of experiment: MK-4 growth rescue assay (OD600). In kind it is cell-based, Staphylococcus aureus. Particulars: 24 h.
Data set [14] concerns the molecule itself. As to the kind of experiment: native MS; protein exchanged from SEC buffer into 2 M ammonium acetate pH 7.4; Sau-MenDIS1 4.7 mg/ml, Sau-MenD ATCC 25923 6.3 mg/ml; gold-coated glass capillaries, Synapt XS, soft ionization.
[15] abbreviates: four-parameter logistic Hill fit of DHNA inhibition.
[16] abbreviates: read-out: activity reduction in the presence of 12.5 µM DHNA.

Residue numbers refer to the chain shown, from its start. Where two headings read alike, the source gives them in different places.

In the case of `O=C(O)c1cc(O)c2ccccc2c1O` [DHNA, 1,4-dihydroxy-2-naphthoic acid], the Hill slope in [1] is −1.2; in [4] (setting [15]) it was −1.0; in data set [6] (setting [15]) it was −1.0; in data set [9] (four-parameter Hill fit, complete CI not determinable, best-fit value to be interpreted with caution), −2.3; in data set [11] (setting [15]), −0.99. In addition, the IC50 in [2] is above 10 µM; in data set [4], 4.6 µM; in [5] it was 0.053 µM; in [6] (0.4 µM enzyme, 100 µM ThDP, 300 µM oxoglutarate, 10 µM isochorismate, 30 min preincubation 37°C), 3.7 µM; in data set [9], above 10 µM; in data set [11] (read-out: IC50 of DHNA, 0.4 µM enzyme, 100 µM ThDP, 300 µM oxoglutarate, 10 µM isochorismate) it was 2.3 µM. In addition, the effect on growth entry was “clearly impaired the growth” in data set [3] (50 µM DHNA, all four Sau strains); “growth impact was more severe” in [3] (100 µM DHNA); “completely inhibited” in data set [3] (150 µM DHNA, all four Sau); “unaffected” in data set [12]. Further, the inhibition at 12.5 µM in data set [4] (setting [16]) was 80%; in data set [6] (12.5 µM DHNA, 0.4 µM enzyme, 100 µM ThDP, 300 µM oxoglutarate, 10 µM isochorismate, read-out: activity reduction in the presence of 12.5 µM DHNA) it was 82%; in [9] (setting [16]) it was 21%. For the same molecule, the dissociation constant (Kd) in data set [7] (+ 100 μM ThDP, 1 µM enzyme, read-out: Kd for DHNA) was 98 µM; in data set [7] (+ 100 μM ThDP/300 μM oxoglutarate, 1 µM enzyme, read-out: Kd for DHNA) it was 58 µM; in data set [7] (apo-enzyme, 1 µM enzyme, 25°C, read-out: Kd for DHNA), 110 µM; in data set [7] (apo-enzyme, ThDP-bound and ThDP- and oxoglutarate-bound forms, read-out: Kd values for DHNA (span over enzyme forms)), 58 to 110 µM; in data set [8] (+ 100 μM ThDP/300 μM oxoglutarate), 67 µM; in data set [8] (apo-enzyme, 25°C) it was 85 µM. Further, the “effect on susceptibility of Sau to cannabidiol” value in data set [10] was “increased the susceptibility”. In addition, the “activity reduction in the presence of 12.5 µM DHNA” value in data set [11] (12.5 µM DHNA, 0.4 µM enzyme, 100 µM ThDP, 300 µM oxoglutarate, 10 µM isochorismate) worked out at 87%.
With `CC(C)=CCC/C(C)=C/CC/C(C)=C/CC/C(C)=C/CC1=C(C)C(=O)c2ccccc2C1=O` [MK-4], the “effect on growth, MK-4 alone” value in [13] (337 µM MK-4 (150 µg ml−1), absence of DHNA) is “slightly impacted the growth”. For the same molecule, the “growth rescue of DHNA-treated Sau” value in data set [13] (337 µM MK-4 added to medium containing 100 µM DHNA, compared with 100 µM DHNA only) is reported as “significant growth improvement”. Also, the “effect on susceptibility of Sau to cannabidiol” value in data set [10] is “prevented cannabidiol-mediated growth impairment”.

B1: Staphylococcus aureus IS1 MenD (SEPHCHC synthase), wild type (enzyme, UniProt Q2FZL7 1-557, looked up)
chain: MGNHKAALTKQVFTFASELYAYGVREVVISPGSRSTPLALAFEAHPNIKTWIHPDERSAAFFAVGLIKGSERPVAILCTSGTAAANYTPAIAESQISRIPLIVLTSDRPHELRSVGAPQAINQVNMFNNYVSYEFDMPIADDSKETIDAIYYQMQIASQYLYGPHKGPIHFNLPFRDPLTPDLNATELLTSEMKILPHYQKSIDASALRHILNKKKGLIIVGDMQHQEVDQILTYSTIYDLPILADPLSHLRKFDHPNVICTYDLLFRSGLDLNVDFVIRVGKPVISKKLNQWLKKTDAFQILVQNNDKIDVFPIAPDISYEISANDFFRSLMEDTTVNRVSWLEKWQCLEKKGRKEIKCYLEQATDESAFVGELIKKTSEKDALFISNSMPIRDVDNLLLNKNIDVYANRGANGIDGIVSTALGMAVHKRITLLIGDLSFYHDMNGLLMSKLNNIQMNIVLLNNDGGGIFSYLPQKESATDYFERLFGTPTGLDFEYTAKLYQFDFKRFNSVSEFKNATLLSETSTIYELITNREDNFKQHQILYQKLSEMIHDTL
notes: MenD (SEPHCHC synthase) of Staphylococcus aureus IS1; the structure numbers residues up to 557; Cloned in a modified pET30a by NcoI and HindIII; also called Sau-MenDIS1; Sau-MenD IS1; source: E. coli BL21 (DE3), purified (IMAC, TEV cleavage, subtractive IMAC, SEC); not shown: His6, N-terminal, cleaved
For the molecule B1, the “stoichiometry N” value in data set [14] was 4.

B2: Staphylococcus aureus ATCC 25923 MenD (SEPHCHC synthase) (enzyme)
chain: B1 chain with N274K, C349R, L350I, I432V, S512N
Consider B2, for which, in data set [14], the “stoichiometry N” value worked out at 4.
